Data from BindingDB's records for doi:10.1021/jm001111b (Louis Pasteur University, 2001).
pKi: −log10 of the molar value.

Assay: Displacement of [3H]clonidine from imidazoline receptor I-1 of bovine chromaffin cell membranes

| SMILES | pKi |
| --- | --- |
| CC1CN=C(NC(C2CC2)C2CC2)C1 (stereo unspecified) | 6.19 |
| CC1CCC(NC(C2CC2)C2CC2)=N1 (stereo unspecified) | 5.80 |

Stronger by pKi, values ahead:

| pKi | SMILES |
| --- | --- |
| 7.13 | C1COC(NC(C2CC2)C2CC2)=N1 [CHEBI:8862] |
| 6.27 | CC1CC(NC(C2CC2)C2CC2)=NC1C (stereo unspecified) |
| 6.29 | C1CN=C(NC(C2CC2)C2CC2)C1 |
| 6.77 | CCC1CCC(NC(C2CC2)C2CC2)=N1 (stereo unspecified) |
